Here are results for 2 compounds from publication PMC4465654, “Multi-Leu PACE4 Inhibitor Retention within Cells Is PACE4 Dependent and a Prerequisite for Antiproliferative Activity” (BioMed Research International, 2015).

pKi: −log10 of the molar value. “Also recorded” adds a separate entry of the source. Read-outs that look alike come from different tables or passages of the source. Where a SMILES comes first, the peptide text is derived from it. A value given as a limit tells only on which side of the number the result lay.

Assay [1] concerns Huh7 cells. Put plainly: MTT cell proliferation assay, Huh7. It is filed as cell-based. Conditions: 72 h, serum-free medium, 1 μM to 300 μM, means of at least 3 independent experiments (Figure 5b). On the procedure:
(§1) To evaluate peptide growth inhibitory properties, 3000 (Huh7) and 4000 (HepG2) cells were seeded in triplicate in 96-well plates. After 24 h, media was changed for serum-free medium and increasing concentrations of peptide were added. After 72 h, 25 μL of 3-(4,5-Dimethylthiazol-2-yl)-2,5-diphenyltetrazolium bromide (MTT) reagent (5 mg/mL; Sigma Aldrich) was added to each well and, after 4-hour incubation, medium was carefully removed and cells were lysed in acidic isopropanol (24 : 1 HCl 1 N). Absorbance at 550 nm and 650 nm (reference wavelength) was measured using a plate spectrophotometer.
(§2) Figure 5 Antiproliferative properties of ML peptide on the tested cell lines. […] Data are means ± SEM of at least 3 independent experiments.
For orientation: Formazan colour is commonly taken as a measure of viable cells.

Assay [2] deals with HT1080 cells. Put plainly: MTT cell proliferation assay, HT1080. It is filed as cell-based. The note with it: 72 h, serum-free medium, 1 μM to 300 μM, means of at least 3 independent experiments (Figure 5c).
Assay [3] concerns HepG2 cells. As to the kind of experiment: MTT cell proliferation assay, HepG2. Format: cell-based. The note with it: 72 h, serum-free medium, 1 μM to 300 μM, means of at least 3 independent experiments (Figure 5a). On the procedure: as §1, §2
The target of assay [4] is recombinant PACE4. The note with it: in vitro inhibition, read-out: K i against recombinant PACE4, cited from earlier work.

Take `CC(=O)N[C@@H](CCCNC(=N)N)C(=O)N[C@@H](CC(C)C)C(=O)N[C@@H](CCCNC(=N)N)C(=O)N[C@@H](CC(C)C)C(=O)N[C@@H](CC(C)C)C(=O)N[C@@H](CCCCN)C(=O)N[C@H](C(=O)N[C@@H](CC(C)C)C(N)=O)C(C)C` [scramble version of the ML peptide, Ac-RLRLLKVL-NH2, reference compound] (Ac-RLRLLKVL-NH2): the “inhibition of cell proliferation relative to untreated cells” value in assay [1], in assay [2] and in assay [3] was “inactive” each time. In addition, the pKi in assay [4] was under 5.00.
Regarding `CC(=O)N[C@@H](CC(C)C)C(=O)N[C@@H](CC(C)C)C(=O)N[C@@H](CC(C)C)C(=O)N[C@@H](CC(C)C)C(=O)N[C@@H](CCCNC(=N)N)C(=O)N[C@H](C(=O)N[C@@H](CCCCN)C(=O)N[C@@H](CCCNC(=N)N)C(N)=O)C(C)C` [ML peptide, Ac-LLLLRVKR-NH2] (Ac-LLLLRVKR-NH2), the “inhibition of cell proliferation relative to untreated cells” value is listed as “dose-response inhibition of cell proliferation” in assay [1], “dose-response inhibition of cell proliferation; also recorded: lowest response” in assay [2] and “dose-response inhibition of cell proliferation” in assay [3]. Moreover, the pKi in assay [4] (independently of the addition of the NOTA moiety) is 7.70.
